In patent publication US20090312288A1 (TAKEDA PHARMACEUTICAL COMPANY LIMITED, priority 2008, published 2009) one finds IC50 data, which are given here for 37 compounds.

Chain of Aurora B/INCENP (Q96GD4 whole entry): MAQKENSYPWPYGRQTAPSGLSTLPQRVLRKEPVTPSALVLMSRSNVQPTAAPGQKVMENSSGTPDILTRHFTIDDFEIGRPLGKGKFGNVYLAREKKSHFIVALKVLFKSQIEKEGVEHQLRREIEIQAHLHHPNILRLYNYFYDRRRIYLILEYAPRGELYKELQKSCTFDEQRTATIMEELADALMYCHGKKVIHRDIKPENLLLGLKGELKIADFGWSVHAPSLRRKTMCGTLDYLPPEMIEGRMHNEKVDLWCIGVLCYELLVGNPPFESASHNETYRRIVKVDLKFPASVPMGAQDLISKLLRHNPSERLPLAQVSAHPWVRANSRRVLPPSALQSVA
Chain of Aurora B/INCENP (Q9NQS7 whole entry partner): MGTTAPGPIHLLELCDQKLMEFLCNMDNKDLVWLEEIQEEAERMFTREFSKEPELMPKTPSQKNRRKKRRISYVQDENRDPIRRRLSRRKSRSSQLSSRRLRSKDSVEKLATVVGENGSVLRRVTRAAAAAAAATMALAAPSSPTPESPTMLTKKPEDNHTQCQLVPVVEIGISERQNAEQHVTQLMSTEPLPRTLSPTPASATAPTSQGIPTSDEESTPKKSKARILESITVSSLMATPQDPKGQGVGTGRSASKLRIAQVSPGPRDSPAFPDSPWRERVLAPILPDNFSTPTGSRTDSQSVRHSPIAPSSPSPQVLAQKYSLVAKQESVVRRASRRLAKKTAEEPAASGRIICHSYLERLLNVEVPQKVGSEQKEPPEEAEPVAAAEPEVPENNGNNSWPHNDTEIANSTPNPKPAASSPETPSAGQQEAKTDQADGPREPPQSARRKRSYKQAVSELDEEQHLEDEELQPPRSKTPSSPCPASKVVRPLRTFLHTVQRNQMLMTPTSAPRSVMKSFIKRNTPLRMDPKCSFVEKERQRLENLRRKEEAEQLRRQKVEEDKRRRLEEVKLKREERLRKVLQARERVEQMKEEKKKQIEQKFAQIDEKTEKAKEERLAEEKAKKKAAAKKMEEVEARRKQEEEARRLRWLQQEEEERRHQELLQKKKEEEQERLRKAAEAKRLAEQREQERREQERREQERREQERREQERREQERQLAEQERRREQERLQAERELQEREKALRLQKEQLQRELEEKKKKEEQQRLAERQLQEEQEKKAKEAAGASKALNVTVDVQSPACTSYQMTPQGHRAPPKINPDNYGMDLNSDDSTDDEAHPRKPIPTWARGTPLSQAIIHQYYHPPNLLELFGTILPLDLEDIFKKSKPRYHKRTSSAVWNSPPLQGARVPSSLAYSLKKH

This experiment has as its target Aurora B/INCENP (Homo sapiens, UniProt Q96GD4). Kind of experiment: Determination of inhibition of AIK: Aurora B/INCENP direct fluorescence polarization (IMAP) assay. Type of experiment: biochemical. To be noted: 10 uM ATP, 0.8 nM Aurora B/INCENP; values given as bins; read-out: IC50 of Exemplified Compounds Against AIK B.
Usually IC50 stands for the point on the concentration scale where inhibition reaches its midpoint. In the case of `CCNCc1cc(-c2cccc(S(=O)(=O)CC)c2)c2c(c1)[nH]c1ncc(C)cc12` [Compound 139, [5-(3-Ethanesulfonyl-phenyl)-3-methyl-9H-pyrido[2,3-b]indol-7-ylmethyl]-ethyl-amine], the IC50 is more than 13 nM.
For `CCS(=O)(=O)c1cccc(-c2cc(C(=O)O)cc3[nH]c4ncc(C)cc4c23)c1` [Compound 140, 5-(3-Ethanesulfonyl-phenyl)-3-methyl-9H-pyrido[2,3-b]indole-7-carboxylic acid], the IC50 fell in the range of 4 to 5.5 nM.
Then `CCS(=O)(=O)c1cccc(-c2cc(C(=O)N3CCN(C)CC3)cc3[nH]c4ncc(C)cc4c23)c1` [Compound 141, [5-(3-Ethanesulfonyl-phenyl)-3-methyl-9H-pyrido[2,3-b]indol-7-yl]-(4-methyl-piperazin-1-yl)-methanone], with more than 13 nM.
On to `CCS(=O)(=O)c1cccc(-c2cc(C(=O)NCCN(C)C)cc3[nH]c4ncc(C)cc4c23)c1` [Compound 142, 5-(3-Ethanesulfonyl-phenyl)-3-methyl-9H-pyrido[2,3-b]indole-7-carboxylic acid (2-dimethylamino-ethyl)-amide], for which the IC50 lay within 5.6 to 8.5 nM.
In the case of `CCS(=O)(=O)c1cccc(-c2cc(C(=O)NCCCN(C)C)cc3[nH]c4ncc(C)cc4c23)c1` [Compound 143, 5-(3-Ethanesulfonyl-phenyl)-3-methyl-9H-pyrido[2,3-b]indole-7-carboxylic acid (3-dimethylamino-propyl)-amide], the IC50 was more than 13 nM.
On to `CCS(=O)(=O)c1cccc(-c2cc(C(=O)N3CCC(N(C)C)C3)cc3[nH]c4ncc(C)cc4c23)c1` (stereo not shown) [Compound 145, (3-Dimethylamino-pyrrolidin-1-yl)-[5-(3-ethanesulfonyl-phenyl)-3-methyl-9H-pyrido[2,3-b]indol-7-yl]-methanone], for which the IC50 is more than 13 nM.
Then `CCNC(=O)c1cc(-c2cccc(S(=O)(=O)CC)c2)c2c(c1)[nH]c1ncc(C)cc12` [Compound 146, N-ethyl-5-(3-(ethylsulfonyl)phenyl)-3-methyl-9H-pyrido[2,3-b]indole-7-carboxamide], with 5.6 to 8.5 nM; and `CCS(=O)(=O)c1cccc(-c2c(Br)c(C(=O)OC)cc3[nH]c4ncc(C)cc4c23)c1` [Compound 147, 6-Bromo-5-(3-ethanesulfonyl-phenyl)-3-methyl-9H-pyrido[2,3-b]indole-7-carboxylic acid methyl ester], with more than 13 nM; and `CCS(=O)(=O)c1cccc(-c2cc(C(=O)OC)c(Br)c3[nH]c4ncc(C)cc4c23)c1` [Compound 148, 8-Bromo-5-(3-ethanesulfonyl-phenyl)-3-methyl-9H-pyrido[2,3-b]indole-7-carboxylic acid methyl ester], with 4 to 5.5 nM.
Regarding `CCS(=O)(=O)c1cccc(-c2c(Cl)c(C(=O)OC)cc3[nH]c4ncc(C)cc4c23)c1` [Compound 149, 6-Chloro-5-(3-ethanesulfonyl-phenyl)-3-methyl-9H-pyrido[2,3-b]indole-7-carboxylic acid methyl ester], the IC50 was more than 13 nM.
Then `CCS(=O)(=O)c1cccc(-c2cc(C(=O)OC)c(Cl)c3[nH]c4ncc(C)cc4c23)c1` [Compound 150, 8-Chloro-5-(3-ethanesulfonyl-phenyl)-3-methyl-9H-pyrido[2,3-b]indole-7-carboxylic acid methyl ester], with 4 to 5.5 nM.
In the case of `Cc1cnc2[nH]c3cc(C(=O)O)cc(SCc4ccccc4)c3c2c1` [Compound 151, 5-(benzylthio)-3-methyl-9H-pyrido[2,3-b]indole-7-carboxylic acid], the IC50 is more than 13 nM.
As for `Cc1cnc2[nH]c3cc(C(=O)NCCN(C)C)cc(SCc4ccccc4)c3c2c1` [Compound 152, 5-(benzylthio)-N-(2-(dimethylamino)ethyl)-3-methyl-9H-pyrido[2,3-b]indole-7-carboxamide], the IC50 was more than 13 nM.
Consider `CCNS(=O)(=O)c1cccc(-c2cc(C(=O)NC3CCN(C)CC3)c(C)c3[nH]c4ncc(C)cc4c23)c1` [Compound 153], for which the IC50 was more than 13 nM.
Consider `Cc1cnc2[nH]c3c(C)c(C(=O)NC4CCN(C)CC4)cc(-c4cccc(S(=O)(=O)C5CC5)c4)c3c2c1` [Compound 154, 5-(3-(cyclopropylsulfonyl)phenyl)-3,8-dimethyl-N-(1-methylpiperidin-4-yl)-9H-pyrido[2,3-b]indole-7-carboxamide], for which the IC50 was 8.6 to 13 nM.
Then `CCS(=O)(=O)c1cccc(-c2ccc(O)c3[nH]c4ncc(C)cc4c23)c1` [Compound 158, 5-(3-(ethylsulfonyl)phenyl)-3-methyl-9H-pyrido[2,3-b]indol-8-ol], with less than 4 nM; and `COc1ccc(-c2cccc(S(=O)(=O)N3CCCC3)c2)c2c1[nH]c1ncc(C)cc12` [Compound 159, 8-methoxy-3-methyl-5-(3-(pyrrolidin-1-ylsulfonyl)phenyl)-9H-pyrido[2,3-b]indole], with 8.6 to 13 nM.
Regarding `COc1ccc(-c2cccc(S(=O)(=O)[C@@H]3CCNC3)c2)c2c1[nH]c1ncc(C)cc12` [Compound 160, (R)-8-methoxy-3-methyl-5-(3-(pyrrolidin-3-ylsulfonyl)phenyl)-9H-pyrido[2,3-b]indole], the IC50 was in the range of 5.6 to 8.5 nM.
Turning to `COc1ccc(-c2cccc(NC(C)=O)c2)c2c1[nH]c1ncc(C)cc12` [Compound 162, N-(3-(8-methoxy-3-methyl-9H-pyrido[2,3-b]indol-5-yl)phenyl)acetamide], the IC50 was in the range of 5.6 to 8.5 nM.
Regarding `COc1ccc(-c2cccc(NC(=O)C3CC3)c2)c2c1[nH]c1ncc(C)cc12` [Compound 163, N-(3-(8-methoxy-3-methyl-9H-pyrido[2,3-b]indol-5-yl)phenyl)cyclopropanecarboxamide], the IC50 is 8.6 to 13 nM.
As to `COc1ccc(-c2cccc(C(=O)NC3CC3)c2)c2c1[nH]c1ncc(C)cc12` [Compound 164, N-cyclopropyl-3-(8-methoxy-3-methyl-9H-pyrido[2,3-b]indol-5-yl)benzamide], the IC50 was 5.6 to 8.5 nM.
For `CCN(CC)C(=O)c1cccc(-c2ccc(OC)c3[nH]c4ncc(C)cc4c23)c1` [Compound 165, N,N-diethyl-3-(8-methoxy-3-methyl-9H-pyrido[2,3-b]indol-5-yl)benzamide], the IC50 was 4 to 5.5 nM.
As to `COc1ccc(-c2ccc3c(c2)OCO3)c2c1[nH]c1ncc(C)cc12` [Compound 166, 5-(benzo[d][1,3]dioxol-5-yl)-8-methoxy-3-methyl-9H-pyrido[2,3-b]indole], the IC50 was more than 13 nM.
`COc1ccc(-c2cccc(C(=O)NCCO)c2)c2c1[nH]c1ncc(C)cc12` [Compound 168, N-(2-hydroxyethyl)-3-(8-methoxy-3-methyl-9H-pyrido[2,3-b]indol-5-yl)benzamide]: the IC50 fell in the range of 8.6 to 13 nM.
Turning to `CCNS(=O)(=O)c1cccc(-c2ccc(OC)c3[nH]c4ncc(C)cc4c23)c1` [Compound 170, N-ethyl-3-(8-methoxy-3-methyl-9H-pyrido[2,3-b]indol-5-yl)benzenesulfonamide], the IC50 is less than 4 nM.
For `CCOc1ccc(-c2cccc(S(=O)(=O)CC)c2)c2c1[nH]c1ncc(C)cc12` [Compound 171, 8-ethoxy-5-(3-(ethylsulfonyl)phenyl)-3-methyl-9H-pyrido[2,3-b]indole], the IC50 lay in the range of 5.6 to 8.5 nM.
Then `CCS(=O)(=O)c1cccc(-c2ccc(OC(F)F)c3[nH]c4ncc(C)cc4c23)c1` [Compound 172, 8-(difluoromethoxy)-5-(3-(ethylsulfonyl)phenyl)-3-methyl-9H-pyrido[2,3-b]indole], with 5.6 to 8.5 nM; and `CCS(=O)(=O)c1cccc(-c2ccc(OCC(F)(F)F)c3[nH]c4ncc(C)cc4c23)c1` [Compound 173, 5-(3-(ethylsulfonyl)phenyl)-3-methyl-8-(2,2,2-trifluoroethoxy)-9H-pyrido[2,3-b]indole], with 5.6 to 8.5 nM.
Turning to `CCS(=O)(=O)c1cccc(-c2ccc(OCC3CCN(C)CC3)c3[nH]c4ncc(C)cc4c23)c1` [Compound 177, 5-(3-(ethylsulfonyl)phenyl)-3-methyl-8-((1-methylpiperidin-4-yl)methoxy)-9H-pyrido[2,3-b]indole], the IC50 lay within 8.6 to 13 nM.
With `Cc1cnc2[nH]c3c(OCC4CCN(C)CC4)ccc(-c4cccc(C(=O)NC5CC5)c4)c3c2c1` [Compound 178, N-cyclopropyl-3-(3-methyl-8-((1-methylpiperidin-4-yl)methoxy)-9H-pyrido[2,3-b]indol-5-yl)benzamide], the IC50 is more than 13 nM.
Take `Cc1cnc2[nH]c3c(OCC4CCN(C)CC4)ccc(-c4cccc(S(=O)(=O)C5CC5)c4)c3c2c1` [Compound 179, 5-(3-(cyclopropylsulfonyl)phenyl)-3-methyl-8-((1-methylpiperidin-4-yl)methoxy)-9H-pyrido[2,3-b]indole]: the IC50 fell in the range of 5.6 to 8.5 nM.
On to `CNS(=O)(=O)c1cccc(-c2ccc(OCC3CCN(C)CC3)c3[nH]c4ncc(C)cc4c23)c1` [Compound 180, N-methyl-3-(3-methyl-8-((1-methylpiperidin-4-yl)methoxy)-9H-pyrido[2,3-b]indole-5-yl)benzenesulfonamide], for which the IC50 was in the range of 8.6 to 13 nM.
`Cc1cnc2[nH]c3c(OCC4CCN(C)CC4)ccc(-c4cccc(S(=O)(=O)N(C)C)c4)c3c2c1` [Compound 181, N,N-dimethyl-3-(3-methyl-8-((1-methylpiperidin-4-yl)methoxy)-9H-pyrido[2,3-b]indole-5-yl)benzenesulfonamide]: the IC50 is 8.6 to 13 nM.
For the compound `Cc1cnc2[nH]c3c(OCC4CCN(C)CC4)ccc(-c4cccc(NC(=O)C5CC5)c4)c3c2c1` [Compound 182, N-(3-(3-methyl-8-((1-methylpiperidin-4-yl)methoxy)-9H-pyrido[2,3-b]indol-5-yl)phenyl)cyclopropanecarboxamide], the IC50 was in the range of 5.6 to 8.5 nM.
In the case of `CCSc1cccc(-c2ccc(OCC3CCN(C)CC3)c3[nH]c4ncc(C)cc4c23)c1` [Compound 183] it was more than 13 nM; in that of `CCOc1cccc(-c2ccc(OCC3CCN(C)CC3)c3[nH]c4ncc(C)cc4c23)c1` [Compound 184, 5-(3-ethoxyphenyl)-3-methyl-8-((1-methylpiperidin-4-yl)methoxy)-9H-pyrido[2,3-b]indole], more than 13 nM; in that of `CCS(=O)(=O)c1cccc(-c2ccc(OCC3CCNCC3)c3[nH]c4ncc(C)cc4c23)c1` [Compound 185, 5-(3-(ethylsulfonyl)phenyl)-3-methyl-8-(piperidin-4-ylmethoxy)-9H-pyrido[2,3-b]indole], 4 to 5.5 nM.
